Data published in patent US8895501B2, “Eye-drop vaccine containing copolymer 1 for therapeutic immunization” (Yeda Research and Development Co. Ltd., priority 2003, dated 2014).
Several values for one entry are separate records, joined by “and”; a condition that tells them apart may be missing. Equal entries are not always repeated.

Tests used:
[1] = system: retinal ganglion cells (RGCs); experiment: Chronic high IOP model (laser-induced), IOP-induced RGC death; type: in vivo, rat; details: for % of death of RGCs: non-thymectomized rats; for % of death of RGCs / loss of RGCs (% death): treatment started immediately after IOP elevation (Cop-1 single injection, brimonidine daily), 3 weeks; for loss of RGCs (% death): thymectomized (T cell-deprived) rats
Excerpt: (§1) Inbred adult male Lewis and Sprague-Dawley (SPD) rats (8 weeks; average weight 300 g) were supplied by the Animal Breeding Center at The Weizmann Institute of Science (Rehovot, Israel). The rats were maintained in a light- and temperature-controlled room and were matched for age and weight before each experiment. All animals were handled according to the regulations formulated by IACUC ([…]).
Blockage of aqueous outflow causes an increase in IOP, which results in RGC death (Bakalash et al., 2002; Schori et al., 2001; Jia et al., 2000a; Levkovitch-Verbin et al., 2002). […] Rats were deeply anesthetized by intramuscular injection of ketamine hydrochloride (50 mg/kg) and xylazine hydrochloride (0.5 mg/kg). A slit lamp emitting blue-green argon laser irradiation (Haag-Streit, Köniz, Switzerland) was used to treat the right eye of the anesthetized rat with 80 to 120 applications directed toward three of the four episcleral veins and toward 270° of the limbal plexus. The laser beam was applied with a power of 1 W for 0.2 seconds, producing a spot size of 100 μm at the episcleral veins and 50 μm at the limbal plexus. At a second laser session 1 week later, the same parameters were used, except that the spot size was 100 μm in all applications. Irradiation was directed toward all four episcleral veins and 360° of the limbal plexus (Schori et al. 2001).
(§2) Eyes from untreated rats were used as a control. RGCs were counted by an observer who was blinded to the identity of the retinas.
Rats with either laser-induced increase in IOP or acute IOP elevation were immunized with Cop 1 (100 μg) (Teva Pharmaceutical Industries Ltd., Petach Tikva, Israel) emulsified in 2.5 mg/ml of CFA in a total volume of 100 μl (Kipnis et al., 2000). Each animal was vaccinated subcutaneously at the root of the tail.
(§3) Cop-1 in PBS was given at different concentrations and at different time points after the primary insult subcutaneously. Topical administration of Cop-1 was done after immersing the substance in PBS at a concentration of 20 mg/ml. Since each drop was of 50 μl, we administered 1 drop every 5 minutes for a total of 5 drops in 25 minutes.

[2] = system: retinal ganglion cells (RGCs); experiment: Acute transient high IOP model, IOP-induced RGC death; type: in vivo, Lewis rats
Excerpt: as §1
The infusion bag was placed 1 meter above the rat's head, creating a closed loop circulation. High IOP was induced for exactly 1 hour after which the needle was removed from the eye and the hole was self-sealed.
as §2, §3

Compound | % of death of RGCs [1] | loss of RGCs (% death) [1] | % of RGC death ([1]; Cop-1 emulsified in CFA, day of first laser plus 2, 6 and 9 weeks later, retinas excised 12 weeks after first laser, n=5) | % of RGC death ([1]; Cop-1 emulsified in CFA, immunized on day of first laser, retinas excised 3 weeks later, n=7) | % of RGC death ([1]; adjuvant-free 500 μg, daily injections for 7 days starting on day 0, retinas excised 3 weeks later) | % of RGC death ([1]; adjuvant-free 500 μg, single injection on day 7 after first laser, retinas excised 3 weeks later) | % of RGC death ([1]; adjuvant-free, subcutaneous, 100 μg on first day of laser treatment) | % of RGC death ([1]; adjuvant-free, subcutaneous, 250 μg on first day of laser treatment) | % of RGC death ([1]; adjuvant-free, subcutaneous, 500 μg on first day of laser treatment) | RGC protection 6 weeks after IOP was first elevated, comparison of regimens ([1]; adjuvant-free, two injections (day 0 and 3 weeks later) versus a single injection after 3 weeks) | number of RGCs ([1]; eye drops without adjuvant, 5 mg Cop-1, assessed 3 weeks after pressure elevation, p<10^-5) | Average death rate of RGCs ([2]; 5 mg Cop-1 over 25 minutes immediately after 1 hour of elevated IOP, two weeks after IOP elevation, n=4) | RGC protection, eye drops applied to the eye contralateral to the elevated pressure ([2]; Cop-1 eye drops to contralateral side versus ipsilateral) | loss of RGCs ([2]; Cop-1 without adjuvant, 2 weeks after transient IOP elevation (1 hour))
Brc1c(NC2=NCCN2)ccc2nccnc12 [brimonidine] | 34.5±3.51% | 38±7% | – | – | – | – | – | – | – | – | – | – | – | –
glatiramer acetate [Cop-1] | 23.5±5.7% | 55±5.2% and 55% | 33.7±1.4% | 12.6±5% | 41.41±6% | 19.1±14.7% | 44±6% | 50.5±8% | 26.6±10% | more effective than a single injection after 3 weeks | 150 RGCs | 31.12%±3.22 | same effect as when given ipsilaterally | 20%
